According to ChEMBL document CHEMBL1201862, “PubChem BioAssay data set” (2004):
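Compound exposure: 48 hours, 5 concentrations, 96-well plates. GI50 is the concentration that inhibits growth by half.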 Activity calls are given as the source filed them. Cut-off read from the data, not from the text of the source: active = GI50 up to about 1.1 µM and inactive = higher.

How the values were obtained:
Assay in all cases: DTP human tumour cell line panel, 48 h
[1] = test system: TK-10
[2] = test system: SNB-75
[3] = test system: SF-539
[4] = test system: UO-31
[5] = test system: MOLT-4
[6] = test system: SK-MEL-28
[7] = test system: OVCAR-8
[8] = test system: RXF 393
[9] = test system: NCI-H460
[10] = test system: LOX IMVI
[11] = test system: BT-549
[12] = test system: COLO 205
[13] = test system: ACHN
[14] = test system: HCC 2998
[15] = test system: SF-295
[16] = test system: UACC-62
[17] = test system: Hs-578T
[18] = test system: SR
[19] = test system: HL-60
[20] = test system: A549
[21] = test system: SK-OV-3
[22] = test system: MDA-MB-435
[23] = test system: CAKI-1
[24] = test system: MDA-MB-231
[25] = test system: K562
[26] = test system: HCT-116
[27] = test system: HOP-62
[28] = test system: OVCAR-3
[29] = test system: T47D
[30] = test system: OVCAR-5
[31] = test system: 786-0
[32] = test system: MDA-N
[33] = test system: Malme-3M
[34] = test system: NCI/ADR-RES
[35] = test system: NCI-H522
[36] = test system: NCI-H226
[37] = test system: KM12
[38] = test system: HT-29
[39] = test system: SNB-19
[40] = test system: CCRF-CEM
[41] = test system: DU-145
[42] = test system: RPMI-8226
[43] = test system: SF-268
[44] = test system: HOP-92
[45] = test system: SW-620
[46] = test system: M14
[47] = test system: SK-MEL-5
[48] = test system: NCI-H23
[49] = test system: U-251
[50] = test system: MCF7
[51] = test system: UACC-257
[52] = test system: EKVX
[53] = test system: HCT-15
[54] = test system: SN12C
[55] = test system: SK-MEL-2
[56] = test system: PC-3
[57] = test system: IGROV-1
[58] = test system: OVCAR-4
[59] = test system: A498

SMILES: N=C(N)NS(=O)(=O)c1ccc(NC(=O)c2cccc3c(NNc4ccc(S(N)(=O)=O)cc4)c4ccccc4nc23)cc1
- GI50 [1]: > 100 µM (inactive)
- GI50 [2]: > 100 µM (inactive)
- GI50 [3]: > 100 µM (inactive)
- GI50 [4]: > 100 µM (inactive)
- GI50 [5]: 28.2 µM (inactive)
- GI50 [6]: > 100 µM (inactive)
- GI50 [7]: 66.1 µM (inactive)
- GI50 [8]: > 100 µM (inactive)
- GI50 [9]: 83.4 µM (inactive)
- GI50 [10]: 20.4 µM (inactive)
- GI50 [11]: 74.5 µM (inactive)
- GI50 [12]: > 100 µM (inactive)
- GI50 [13]: 66.5 µM (inactive)
- GI50 [14]: > 100 µM (inactive)
- GI50 [15]: > 100 µM (inactive)
- GI50 [16]: > 100 µM (inactive)
- GI50 [17]: 59.4 µM (inactive)
- GI50 [18]: 35 µM (inactive)
- GI50 [19]: 30.6 µM (inactive)
- GI50 [20]: > 100 µM (inactive)
- GI50 [21]: > 100 µM (inactive)
- GI50 [22]: 51.6 µM (inactive)
- GI50 [23]: > 100 µM (inactive)
- GI50 [24]: 27.5 µM (inactive)
- GI50 [25]: 26.6 µM (inactive)
- GI50 [26]: 53.8 µM (inactive)
- GI50 [27]: > 100 µM (inactive)
- GI50 [28]: 36.1 µM (inactive)
- GI50 [29]: 18.7 µM (inactive)
- GI50 [30]: > 100 µM (inactive)
- GI50 [31]: 59.4 µM (inactive)
- GI50 [32]: > 100 µM (inactive)
- GI50 [33]: 34.8 µM (inactive)
- GI50 [34]: > 100 µM (inactive)
- GI50 [35]: 41.1 µM (inactive)
- GI50 [36]: > 100 µM (inactive)
- GI50 [37]: 50.7 µM (inactive)
- GI50 [38]: 47 µM (inactive)
- GI50 [39]: > 100 µM (inactive)
- GI50 [40]: 34.5 µM (inactive)
- GI50 [41]: > 100 µM (inactive)
- GI50 [42]: 39.6 µM (inactive)
- GI50 [43]: 73.5 µM (inactive)
- GI50 [44]: 25.3 µM (inactive)
- GI50 [45]: 45.4 µM (inactive)
- GI50 [46]: > 100 µM (inactive)
- GI50 [47]: 55.6 µM (inactive)
- GI50 [48]: > 100 µM (inactive)
- GI50 [49]: 44.2 µM (inactive)
- GI50 [50]: 26.4 µM (inactive)
- GI50 [51]: > 100 µM (inactive)
- GI50 [52]: 47.4 µM (inactive)
- GI50 [53]: 38.9 µM
- GI50 [54]: 99.3 µM (inactive)
- GI50 [55]: > 100 µM (inactive)
- GI50 [56]: 59.7 µM (inactive)
- GI50 [57]: 55.5 µM (inactive)
- GI50 [58]: > 100 µM (inactive)

SMILES: COc1cc2ccc(C(=O)NCCCNC(=O)c3ccc4cc(OC)c(OC)cc4c3)cc2cc1OC
- GI50 [1]: > 100 µM (inactive)
- GI50 [2]: 32.9 µM (inactive)
- GI50 [3]: 53.3 µM (inactive)
- GI50 [4]: > 100 µM (inactive)
- GI50 [6]: > 100 µM (inactive)
- GI50 [7]: > 100 µM (inactive)
- GI50 [9]: 33.7 µM (inactive)
- GI50 [10]: > 100 µM (inactive)
- GI50 [11]: > 100 µM (inactive)
- GI50 [12]: > 100 µM (inactive)
- GI50 [13]: > 100 µM (inactive)
- GI50 [59]: > 100 µM (inactive)
- GI50 [14]: > 100 µM (inactive)
- GI50 [15]: > 100 µM (inactive)
- GI50 [16]: > 100 µM (inactive)
- GI50 [17]: 36.6 µM (inactive)
- GI50 [18]: 35.5 µM (inactive)
- GI50 [19]: > 100 µM (inactive)
- GI50 [20]: > 100 µM (inactive)
- GI50 [21]: > 100 µM (inactive)
- GI50 [22]: > 100 µM (inactive)
- GI50 [23]: > 100 µM (inactive)
- GI50 [24]: 97.1 µM (inactive)
- GI50 [25]: > 100 µM (inactive)
- GI50 [26]: > 100 µM (inactive)
- GI50 [27]: > 100 µM (inactive)
- GI50 [28]: > 100 µM (inactive)
- GI50 [29]: > 100 µM (inactive)
- GI50 [30]: > 100 µM (inactive)
- GI50 [31]: > 100 µM (inactive)
- GI50 [32]: > 100 µM (inactive)
- GI50 [33]: > 100 µM (inactive)
- GI50 [34]: > 100 µM (inactive)
- GI50 [35]: > 100 µM (inactive)
- GI50 [36]: > 100 µM (inactive)
- GI50 [37]: > 100 µM (inactive)
- GI50 [38]: > 100 µM (inactive)
- GI50 [39]: > 100 µM (inactive)
- GI50 [40]: > 100 µM (inactive)
- GI50 [41]: > 100 µM (inactive)
- GI50 [43]: > 100 µM (inactive)
- GI50 [44]: > 100 µM (inactive)
- GI50 [45]: > 100 µM (inactive)
- GI50 [46]: > 100 µM (inactive)
- GI50 [47]: > 100 µM (inactive)
- GI50 [48]: > 100 µM (inactive)
- GI50 [49]: > 100 µM (inactive)
- GI50 [50]: > 100 µM (inactive)
- GI50 [51]: > 100 µM (inactive)
- GI50 [52]: > 100 µM (inactive)
- GI50 [53]: > 100 µM
- GI50 [54]: > 100 µM (inactive)
- GI50 [55]: > 100 µM (inactive)
- GI50 [56]: > 100 µM (inactive)
- GI50 [57]: > 100 µM (inactive)
- GI50 [58]: 57.8 µM (inactive)

SMILES: CC(C)(O)/C1=C/C=C/CCCCCCCCCC1
- GI50 [1]: > 100 µM (inactive)
- GI50 [2]: 0.387 µM (active)
- GI50 [4]: 51.9 µM (inactive)
- GI50 [5]: 28.1 µM (inactive)
- GI50 [6]: > 100 µM (inactive)
- GI50 [7]: > 100 µM (inactive)
- GI50 [9]: > 100 µM (inactive)
- GI50 [10]: > 100 µM (inactive)
- GI50 [11]: > 100 µM (inactive)
- GI50 [12]: > 100 µM (inactive)
- GI50 [13]: > 100 µM (inactive)
- GI50 [59]: > 100 µM (inactive)
- GI50 [14]: > 100 µM (inactive)
- GI50 [15]: > 100 µM (inactive)
- GI50 [16]: 90.2 µM (inactive)
- GI50 [17]: 1.19 µM (inactive)
- GI50 [18]: 34 µM (inactive)
- GI50 [19]: 28.9 µM (inactive)
- GI50 [21]: > 100 µM (inactive)
- GI50 [22]: > 100 µM (inactive)
- GI50 [23]: > 100 µM (inactive)
- GI50 [24]: > 100 µM (inactive)
- GI50 [25]: 37.8 µM (inactive)
- GI50 [26]: > 100 µM (inactive)
- GI50 [27]: > 100 µM (inactive)
- GI50 [28]: > 100 µM (inactive)
- GI50 [29]: > 100 µM (inactive)
- GI50 [30]: > 100 µM (inactive)
- GI50 [32]: > 100 µM (inactive)
- GI50 [33]: > 100 µM (inactive)
- GI50 [34]: > 100 µM (inactive)
- GI50 [35]: 95.9 µM (inactive)
- GI50 [36]: > 100 µM (inactive)
- GI50 [37]: > 100 µM (inactive)
- GI50 [38]: > 100 µM (inactive)
- GI50 [39]: > 100 µM (inactive)
- GI50 [40]: 30.3 µM (inactive)
- GI50 [41]: > 100 µM (inactive)
- GI50 [42]: 33.3 µM (inactive)
- GI50 [43]: > 100 µM (inactive)
- GI50 [44]: 81.3 µM (inactive)
- GI50 [45]: > 100 µM (inactive)
- GI50 [46]: > 100 µM (inactive)
- GI50 [47]: 0.246 µM (active)
- GI50 [48]: > 100 µM (inactive)
- GI50 [49]: > 100 µM (inactive)
- GI50 [50]: > 100 µM (inactive)
- GI50 [51]: > 100 µM (inactive)
- GI50 [52]: > 100 µM (inactive)
- GI50 [53]: > 100 µM
- GI50 [54]: > 100 µM (inactive)
- GI50 [55]: > 100 µM (inactive)
- GI50 [56]: 87.1 µM (inactive)
- GI50 [57]: > 100 µM (inactive)
